Like-named read-outs stand apart in the source and are kept apart here.
Legend:
Assay type in all cases: cell-based
MT1 receptor [1] = target: T1, MT1 receptor (Homo sapiens, UniProt P48039); experiment: ERK phosphorylation assay, MT1; parameters: expressed in transfected cells; conditions: HEK293 cells; isoquinolone 1 μM or 2-iodomelatonin 100 nM, 5 min; against unstimulated control cells
Text: 3. ERK Phosphorylation Assay This assay indicates the ability of the novel compounds to activate MT1 or MT2 receptors by measuring downstream events of the activated receptor, in this case ERK phosphorylation. The amount of phosphorylated ERK1/2 was detected and quantified in western blots. The data in Table 2 is expressed as the fold stimulation against the unstimulated control cells. 6. Detection of ERK phosphorylation […] Stimulation was terminated by aspiration on ice and immediate lysis by 200 μl of 1× protein gel loading buffer. Lysates were denatured by boiling for 5 min and cooled at room temperature until loading. 30 μl of each lysate was separated on 12% SDS-PAGE and transferred to nitrocellulose membrane by electroblotting. Success of transfer was visualized by Ponceau S staining. All subsequent incubations were under gentle agitation (˜100 strokes/min). […] Primary antisera against phosphorylated- or total-ERK1/2 were incubated with the blocked membrane at an appropriate dilution (1:4000-1:2000) in Blotto for overnight at 4° C. The membrane was washed with fresh Blotto for 3 times of 15 min each, then incubated with secondary antiserum (horseradish peroxidase-conjugated anti-rabbit IgG) at the dilution of 1:1000 in 1×TBS for 1 h at room temperature. The membrane was quickly rinsed with excessive 1×TBS for 3 times, and followed by 4 washes of 1×TBS for 10 min. By the end, a premix of luminol-based chemiluminescence substrate solution was prepared (1 ml for every 8 cm^2 of membrane) and overlaid onto the washed membrane to incubate for 1 min. After removing excessive solution, the membrane was covered with saran wrap and an autograph with appropriate exposure was developed on X-ray film in dark room. The image was scanned and the band intensities quantified using ImageJ 1.34. Data was expressed as the percentage response of the vehicle-treated or untreated samples. Experiments were performed at least 3 times and the average responses±SEM were presented.

MT1 receptor [2] = target: T1, MT1 receptor; experiment: FLIPR Ca2+ mobilization assay, MT1; parameters: expressed in transfected cells; host or cells: COS-7 (monkey kidney fibroblast); conditions: for % Response of 2-IMT: relative to 2-IMT response; for logEC50 ± SEM: NSR = No significant response
Protocol: 1. FLIPR Ca^2+ Mobilization Assay
This assay indicates the ability of the novel compounds to activate MT1 and MT2 receptors by measuring downstream events of the activated receptor, in this case intracellular calcium mobilization.
1. Intracellular Ca^2+ Mobilization Assay Using Fluorometric Imaging Plate Reader (FLIPR®)
An intracellular calcium mobilization assay was performed to screen the isoquinolone compounds against the two melatonin receptor subtypes, MT1 and MT2 on the fluorometric imaging plate reader (FLIPR®). In order to facilitate the screening process in a high-throughput manner, chimeric G proteins with the ability to couple to a range of GPCR as well as activate intracellular Ca^2+ were employed. The melatonin receptor subtype (either MT1 or MT2) was co-expressed with the G-protein chimeras in COS-7 (monkey kidney fibroblast) cells. During the assay, cells were exposed to the novel isoquinolone compounds and the corresponding change in fluorescence was measured. Both single point and dose-dependant assays were performed for each isoquinolone compound and based on the latter a dose response curve was generated and the corresponding EC50 for each receptor subtype determined.
Specifically, COS-7 cells were seeded at a density of 20,000 cells/well into 96-well plates designed for FLIPR assays, using Opti-MEM with 10% FCS at a volume of 100 μl/well. Transfection was carried out using Lipofectamine 2000® reagent. In each well, 0.2 μg of the GPCR and G protein cDNA were diluted with 25 μl of Opti-MEM and 0.2 μl of Lipofectamine 2000® was diluted with another 25 μl of Opti-MEM. They were added to appropriate wells after the two components were mixed for 20 min.
After 48 hours of incubation post-transfection, 50 μl of the transfection medium was removed from each well followed by the labelling of transfected cells with 100 μl of 2 μM Fluo-4 in calcium containing HBSS (Hank's balanced salt solution) with 20 mM HEPES (N-[2-hydroxyethyl]piperazine—N′-[2-ethanesulfonic acid]; pH 7.5) and 2.5 mM probenecid (anion exchanger inhibitor, freshly prepared) for 1 hour at 37° C. 70 μl of 3× drugs (isoquinolinone compounds encompassing the invention) were prepared and aliquoted into the corresponding wells in the V-well drug plate. Changes in fluorescence were detected in the FLIPR 96 with an excitation wavelength of 488 nm. The background fluorescence was adjusted to the range of 8,000 to 12,000 units by altering the laser power and exposure time (typically 0.4 W and 0.4 sec, respectively) for the FLIPR setup. 50 μl of each agonist solution was added to the corresponding wells and the fluorescent emission (between 510 and 560 nm) was monitored for 3 min. Results were expressed as change in fluorescent intensity units (FIU). Concentration-response curves were generated by determining the maximal change in FIU of each data set. Numerical analysis of the statistics and EC50 (median effective concentration) values were performed on GraphPad Prism version 3.03.
Then the intracellular Ca^2+ mobilization assays using the Fluorometric Imaging Plate Reader (FLIPR®) were performed as described above.

MT1/293 = experiment: MTT cytotoxicity assay, MT1/293 cells; conditions: percentage of untreated control cells
Protocol: (§1) This assay evaluates the cytotoxic effects of the novel isoquinolone compounds based on the cellular viability under chronic treatments. Viable cells but not dead cells can turn the substrate into a colored product, which yields higher absorbance. […] A low percentage indicates low cytoviability (or high cytotoxicity).
(§2) 5. Cytotoxicity Test Using MTT Assay
(§3) Cells were seeded into clear 96-well plate at an appropriate density in 100 μl growth medium and were allowed to grow overnight. The novel isoquinolone compounds were diluted to desired concentrations using fresh growth medium, and these dilutions were used to replace the growth media in each well. After incubating for 24-96 h, 10 μl of the MTT labeling reagent (Roche) was added to each well and the cells were incubated in a CO2 incubator for 4 h. 100 μl solubilization buffer was then added into each well and incubated overnight for complete solubilization of the purple formazan crystals. […] Each condition was performed in triplicate in every experiment and the results were expressed as % of blank control±SD.

Parental 293 = experiment: MTT cytotoxicity assay, parental 293 cells; conditions: percentage of untreated control cells
Protocol: as §1, §2, §3

[3] = Table 1, MT1 in COS-7 cells with chimeric G protein, log value, negative, NSR = no significant response
[4] = Table 2, MT1, log value, negative
[5] = Table 1, MT1 in COS-7 cells with chimeric G protein, log value, negative, NSR = no significant response, read-out: Log(EC50) ± SEM (converted)

T1 sequence (P48039 whole entry): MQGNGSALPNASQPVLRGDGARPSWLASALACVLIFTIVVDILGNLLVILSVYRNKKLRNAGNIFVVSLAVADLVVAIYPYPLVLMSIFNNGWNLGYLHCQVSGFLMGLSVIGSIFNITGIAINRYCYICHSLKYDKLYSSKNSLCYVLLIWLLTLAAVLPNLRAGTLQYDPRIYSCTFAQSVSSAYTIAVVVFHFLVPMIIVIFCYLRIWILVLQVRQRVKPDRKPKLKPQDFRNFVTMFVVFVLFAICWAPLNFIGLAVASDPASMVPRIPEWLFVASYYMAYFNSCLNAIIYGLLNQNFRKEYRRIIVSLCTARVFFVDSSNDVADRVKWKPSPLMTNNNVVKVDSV

Row | SMILES | ERK Phosphorylation MT1 Fold Stim. (MT1 receptor [1]) [Fold] | % Response of 2-IMT (MT1 receptor [2]; Table 1, MT1) [%] | Log(EC50) ± SEM (MT1 receptor [2]; [3]) | logEC50 ± SEM (MT1 receptor [2]; [4]) | EC50 (MT1 receptor [2]; Table 2, MT1, read-out: EC50) [nM] | MTT Assay MT1/293 % Viability ± SEM (MT1/293) [%] | MTT Assay Parental 293 % Viability ± SEM (Parental 293) [%] | EC50 (MT1 receptor [2]; [5]) [nM]
1 | COc1cc(COc2c(OC)ccc3c(=O)n(C)ccc23)cc(OC)c1 [IS528] | 1.73 | 42.1 | −5.15 ± 0.51 | −5.15 ± 0.51 | 7140 | 50.2 ± 5.7 | 32.2 ± 2.3 | 
2 | COc1cc(COc2cc3c(=O)n(C)ccc3cc2OC)cc(OC)c1 [IS523] | 3.74 |  | NSR | NSR |  | 51.6 ± 1.1 | 37.5 ± 0.9 | 
3 | COc1cc2ccn(C)c(=O)c2cc1OCc1ccc(C(C)(C)C)cc1 [IS526] |  | 46.2 | −5.35 ± 1.32 | −5.35 ± 1.32 | 4490 | 25.0 ± 4.4 | 27.5 ± 18.9 | 
4 | COc1cccc(COc2c(OC)ccc3c(=O)n(C)ccc23)c1 [IS527] | 2.47 |  | NSR | NSR |  | 57.1 ± 3.0 | 36.8 ± 0.0 | 
5 | COc1cccc(COc2cc3ccn(C)c(=O)c3cc2OC)c1 [IS044] | 3.25 | 54.5 | −6.79 ± 0.17 | −6.79 ± 0.17 | 161 | 112.6 ± 5.8 | 78.6 ± 5.8 | 
6 | Cn1ccc2cc(OC(=O)c3ccccc3)c(OC(=O)c3ccccc3)cc2c1=O [IS039] | 2.75 |  | NSR | NSR |  | 108.5 ± 3.2 | 104.9 ± 4.8 | 
7 | COc1cccc(COc2cc3c(=O)n(C)ccc3cc2OC)c1 [IS521] | 3.80 | 31.8 |  |  | 1860 | 89.8 ± 8.3 | 66.1 ± 4.9 | 1860
8 | COc1ccc2c(=O)n(C)ccc2c1OCc1ccc(C)cc1 [IS529] | 2.37 |  | NSR | NSR |  | 54.9 ± 2.5 | 35.9 ± 0.4 | 
9 | COc1cc(COc2cc3ccn(C)c(=O)c3cc2OC)cc(OC)c1 [IS042] | 4.94 | 49.4 |  |  | 12 | 71.6 ± 4.7 | 60.7 ± 0.4 | 12

Reference: patent US8389544B2, “Isoquinolone compounds as subtype-selective agonists for melatonin receptors MT1 and MT2” (The Hong Kong University of Science and Technology, priority 2007, dated 2013)
